Data from patent US8895499B2, “β-hairpin peptidomimetics” (Polyphor AG, priority 2010, dated 2014).
Converted amounts (≈) assume the structure as drawn. Peptide text beside a SMILES is read from it.

Assays:
Shigella boydii DSM 7532 = settings: Mueller-Hinton II broth + 0.02% BSA, 18-20 hours at 37° C.
Experimental: […] colony forming units (CFU)/mL. Aliquots (50 μl) of inoculate were added to 50 μl of MH broth+0.02% BSA containing the peptide in serial two-fold dilutions. The following microorganisms were used to determine antibiotic selectivity of the peptides: Bacillus subtilis DSM 10 and Shigella boydii DSM 7532.

[1] = tested on: human red blood cells (hRBC); assay type: cell-based; settings: red cells of human, 1 h
Experimental: The peptides were tested for their hemolytic activity against human red blood cells (hRBC). Fresh hRBC were washed three times with phosphate buffered saline (PBS) and centrifuged for 10 min at 2000×g. Compounds (100 μg/mL) were incubated with 20% hRBC (v/v) for 1 h at 37° C. and shaking at 300 rpm. The final erythrocyte concentration was approximately 0.9×10^9 cells/mL. A value of 0% and 100% cell lyses, respectively, was determined by incubation of hRBC in the presence of PBS containing 0.001% acetic acid and 2.5% Triton X-100 in H2O, respectively. The samples were centrifuged, the supernatants were 8-fold diluted in PBS buffer and the optical densities (OD) were measured at 540 nm. The 100% lyses value (OD540H2O) gave an OD50 of approximately 0.5-1.0.
Percent hemolysis was calculated as follows: (OD540peptide/OD540H2O)×100%.

in vitro = assay type: cell-based
Experimental: The cytotoxicity of the peptides to HELA cells (Acc57) and COS-7 cells (CRL-1651) was determined using the MTT reduction assay (T. Mossman, J. Immunol. Meth. 1983, 65, 55-63; M. V. Berridge, A. S. Tan, Arch. Biochem. Biophys. 1993, 303, 474-482). Briefly, the method was as follows: 4000 HELA cells/well and 3400 COS-7 cells/well were seeded and grown in 96-well microtiter plates for 24 h at 37° C. at 5% CO2. Thereafter, time zero (Tz) was determined by MTT reduction (see below). The supernatant of the remaining wells was discarded, and fresh medium and compounds in serial dilutions (12.5, 25 and 50 μg/mL, triplicates) were pipetted into the wells. After incubation of the cells for 48 h at 37° C. at 5% CO2 the supernatant was discarded again and 100 μL MTT reagent (0.5 mg/mL in RPMI1640 and DMEM, respectively)/well was added. Following incubation at 37° C. for 2-4 h the media were aspirated and the cells were spiked (100 μL isopropanol/well). The absorbance of the solubilized formazan was measured at 595 nm (OD595peptide). For each concentration averages were calculated from triplicates. The percentage of growth was calculated as follows: (OD595peptide-OD595Tz-OD595Empty well)/(OD595Tz-OD595Empty well)×100%. The GI50 (Growth Inhibition) concentrations were calculated for each peptide by using a trend line function for the concentrations (50, 25, 12.5 and 0 μg/mL), the corresponding percentages and the value 50, (=TREND (C50:C0%50:%0,50).

Structure (SMILES)	Shigella boydii DSM 7532 MIC (Shigella boydii DSM 7532)	Hemolysis at 100 μg/mL [1]	GI50 at 48 h (in vitro; African green monkey)	GI50 at 48 h (in vitro; human)
CC[C@H](C)[C@@H]1NC(=O)[C@H](CCCNC(=N)N)NC(=O)[C@H](Cc2c[nH]c3ccccc23)NC(=O)[C@@H]2CCCN2C(=O)[C@H]2CCCN2C(=O)[C@H](C)NC(=O)[C@H](CCC(N)=O)NC(=O)[C@H](Cc2c[nH]c3ccccc23)NC(=O)[C@H](CCCNC(=N)N)NC(=O)[C@H](CCC(N)=O)NC(=O)[C@H](CC(N)=O)NC(=O)[C@@H](CCCNC(=N)N)NC(=O)[C@H]([C@@H](C)CC)NC(=O)[C@H](CCCNC(=N)N)NC1=O [Example 16] (HELM PEPTIDE1{W.R.I.R.I.[dR].N.Q.R.W.Q.A.[dP].P}$PEPTIDE1,PEPTIDE1,1:R1-14:R2$$$V2.0)	16 µg/mL	0.5%	> 50 µg/mL	> 50 µg/mL
CC[C@H](C)[C@@H]1NC(=O)[C@H](CCCNC(=N)N)NC(=O)[C@H]([C@@H](C)CC)NC(=O)[C@H](CCCNC(=N)N)NC(=O)[C@H](Cc2c[nH]c3ccccc23)NC(=O)[C@@H]2CCCN2C(=O)[C@H]2CCCN2C(=O)[C@H](C)NC(=O)[C@H](CCC(N)=O)NC(=O)[C@H](CC(C)C)NC(=O)[C@H](CCCNC(=N)N)NC(=O)[C@H](CCC(N)=O)NC(=O)[C@H](CC(N)=O)NC(=O)[C@H](CCN)NC1=O [Example 10] (HELM PEPTIDE1{W.R.I.R.I.[Dab].N.Q.R.L.Q.A.[dP].P}$PEPTIDE1,PEPTIDE1,1:R1-14:R2$$$V2.0)	>16 µg/mL	0.4%	> 50 µg/mL	> 50 µg/mL
CC[C@H](C)[C@@H]1NC(=O)[C@H](CCCNC(=N)N)NC(=O)[C@H](Cc2c[nH]c3ccccc23)NC(=O)[C@@H]2CCCN2C(=O)[C@H]2CCCN2C(=O)[C@H](CCCNC(=N)N)NC(=O)[C@H](CCCNC(=N)N)NC(=O)[C@H](CC(C)C)NC(=O)[C@H](CCN)NC(=O)[C@H](CCCCN)NC(=O)[C@H](CC(N)=O)NC(=O)[C@@H](CCCNC(=N)N)NC(=O)[C@H]([C@@H](C)CC)NC(=O)[C@H](CCCNC(=N)N)NC1=O [Example 1] (HELM PEPTIDE1{W.R.I.R.I.[dR].N.K.[Dab].L.R.R.[dP].P}$PEPTIDE1,PEPTIDE1,1:R1-14:R2$$$V2.0)	8 µg/mL	0.0%	> 50 µg/mL	> 50 µg/mL
CC[C@H](C)[C@@H]1NC(=O)[C@H](CCCNC(=N)N)NC(=O)[C@H](Cc2c[nH]c3ccccc23)NC(=O)[C@@H]2CCCN2C(=O)[C@H]2CCCN2C(=O)[C@H](C)NC(=O)[C@H](CCC(N)=O)NC(=O)[C@H](CC2CCCCC2)NC(=O)[C@H](CCCNC(=N)N)NC(=O)[C@H](CCC(N)=O)NC(=O)[C@H](CC(N)=O)NC(=O)[C@@H](CCCNC(=N)N)NC(=O)[C@H]([C@@H](C)CC)NC(=O)[C@H](CCCNC(=N)N)NC1=O [Example 4] (HELM PEPTIDE1{W.R.I.R.I.[dR].N.Q.R.[Cha].Q.A.[dP].P}$PEPTIDE1,PEPTIDE1,1:R1-14:R2$$$V2.0)	>16 µg/mL	0.8%	> 50 µg/mL	> 50 µg/mL
CC[C@H](C)[C@@H]1NC(=O)[C@H](CCCNC(=N)N)NC(=O)[C@H](Cc2c[nH]c3ccccc23)NC(=O)[C@@H]2CCCN2C(=O)[C@H]2CCCN2C(=O)[C@H](C)NC(=O)[C@H](CCC(N)=O)NC(=O)[C@H](CC(C)C)NC(=O)[C@H](CCCNC(=N)N)NC(=O)[C@H](CCC(N)=O)NC(=O)[C@H](CC(C)C)NC(=O)[C@@H](CCCNC(=N)N)NC(=O)[C@H]([C@@H](C)CC)NC(=O)[C@H](CCCNC(=N)N)NC1=O [Example 13] (HELM PEPTIDE1{W.R.I.R.I.[dR].L.Q.R.L.Q.A.[dP].P}$PEPTIDE1,PEPTIDE1,1:R1-14:R2$$$V2.0)	16 µg/mL	0.0%	> 50 µg/mL	> 50 µg/mL
CC[C@H](C)[C@@H]1NC(=O)[C@H](CCCNC(=N)N)NC(=O)[C@H](Cc2c[nH]c3ccccc23)NC(=O)[C@@H]2CCCN2C(=O)[C@H]2CCCN2C(=O)[C@H](CCC(N)=O)NC(=O)[C@H](CCCNC(=N)N)NC(=O)[C@H](CC(C)C)NC(=O)[C@H](CCCNC(=N)N)NC(=O)[C@H](CCCCN)NC(=O)[C@H](CC(N)=O)NC(=O)[C@@H](CCCNC(=N)N)NC(=O)[C@H]([C@@H](C)CC)NC(=O)[C@H](CCCNC(=N)N)NC1=O [Example 2] (HELM PEPTIDE1{W.R.I.R.I.[dR].N.K.R.L.R.Q.[dP].P}$PEPTIDE1,PEPTIDE1,1:R1-14:R2$$$V2.0)	4 µg/mL	0.0%	> 50 µg/mL	> 50 µg/mL
CC[C@H](C)[C@@H]1NC(=O)[C@H](CCCNC(=N)N)NC(=O)[C@H](Cc2c[nH]c3ccccc23)NC(=O)[C@@H]2CCCN2C(=O)[C@H]2CCCN2C(=O)[C@H](CCN)NC(=O)[C@H](CCCNC(=N)N)NC(=O)[C@H](CC(N)=O)NC(=O)[C@H](CCN)NC(=O)[C@H](Cc2c[nH]c3ccccc23)NC(=O)[C@H](CC(N)=O)NC(=O)[C@@H](CCN)NC(=O)[C@H]([C@@H](C)CC)NC(=O)[C@H](CCCNC(=N)N)NC1=O [Example 17] (HELM PEPTIDE1{W.R.I.R.I.[NCC[C@@H](N[*:1])C(=O)[*:2]].N.W.[Dab].N.R.[Dab].[dP].P}$PEPTIDE1,PEPTIDE1,1:R1-14:R2$$$V2.0)	4 µg/mL	0.2%	44 µg/mL (≈ 24.6 µM)	38 µg/mL (≈ 21.2 µM)
CC[C@H](C)[C@@H]1NC(=O)[C@H](CCCNC(=N)N)NC(=O)[C@H](Cc2c[nH]c3ccccc23)NC(=O)[C@@H]2CCCN2C(=O)[C@H]2CCCN2C(=O)[C@H](C)NC(=O)[C@H](CCC(N)=O)NC(=O)[C@H](CC(C)C)NC(=O)[C@H](CCCNC(=N)N)NC(=O)[C@H](CCC(N)=O)NC(=O)[C@H](CC(N)=O)NC(=O)[C@@H](CCCNC(=N)N)NC(=O)[C@H]([C@@H](C)CC)NC(=O)[C@H](CCN)NC1=O [Example 7] (HELM PEPTIDE1{W.R.I.[Dab].I.[dR].N.Q.R.L.Q.A.[dP].P}$PEPTIDE1,PEPTIDE1,1:R1-14:R2$$$V2.0)	>16 µg/mL	0.0%	> 50 µg/mL	> 50 µg/mL
CC[C@H](C)[C@@H]1NC(=O)[C@H](CCCNC(=N)N)NC(=O)[C@H](Cc2c[nH]c3ccccc23)NC(=O)[C@@H]2CCCN2C(=O)[C@H]2CCCN2C(=O)[C@H](C)NC(=O)[C@H](CCCNC(=N)N)NC(=O)[C@H](CC(N)=O)NC(=O)[C@H](CCCNC(=N)N)NC(=O)[C@H](CCCCN)NC(=O)[C@H](CC(N)=O)NC(=O)[C@@H](CCCNC(=N)N)NC(=O)[C@H]([C@@H](C)CC)NC(=O)[C@H](CCCNC(=N)N)NC1=O [Example 3] (HELM PEPTIDE1{W.R.I.R.I.[dR].N.K.R.N.R.A.[dP].P}$PEPTIDE1,PEPTIDE1,1:R1-14:R2$$$V2.0)	16 µg/mL	0.1%	> 50 µg/mL	> 50 µg/mL
CC[C@H](C)[C@@H]1NC(=O)[C@H](CCCNC(=N)N)NC(=O)[C@H](Cc2c[nH]c3ccccc23)NC(=O)[C@@H]2CCCN2C(=O)[C@H]2CCCN2C(=O)[C@H](C)NC(=O)[C@H](CCC(N)=O)NC(=O)[C@H](CC(C)C)NC(=O)[C@H](CCCNC(=N)N)NC(=O)[C@H](CCC(N)=O)NC(=O)[C@H](CC(N)=O)NC(=O)[C@@H](CCCNC(=N)N)NC(=O)[C@H]([C@@H](C)CC)NC(=O)[C@H](CCCN)NC1=O [Example 8] (HELM PEPTIDE1{W.R.I.[Orn].I.[dR].N.Q.R.L.Q.A.[dP].P}$PEPTIDE1,PEPTIDE1,1:R1-14:R2$$$V2.0)	16 µg/mL	0.0%	> 50 µg/mL	> 50 µg/mL
CC[C@H](C)[C@@H]1NC(=O)[C@H](CCCNC(=N)N)NC(=O)[C@H](Cc2c[nH]c3ccccc23)NC(=O)[C@@H]2CCCN2C(=O)[C@H]2CCCN2C(=O)[C@H](C)NC(=O)[C@H](CCC(N)=O)NC(=O)[C@H](Cc2ccc(O)cc2)NC(=O)[C@H](CCCNC(=N)N)NC(=O)[C@H](CCC(N)=O)NC(=O)[C@H](CC(N)=O)NC(=O)[C@@H](CCCNC(=N)N)NC(=O)[C@H]([C@@H](C)CC)NC(=O)[C@H](CCCNC(=N)N)NC1=O [Example 15] (HELM PEPTIDE1{W.R.I.R.I.[dR].N.Q.R.Y.Q.A.[dP].P}$PEPTIDE1,PEPTIDE1,1:R1-14:R2$$$V2.0)	16 µg/mL	0.0%	> 50 µg/mL	> 50 µg/mL
